In US20050038058A1, “Novel compounds and methods for therapy” (Institute of Organic Chemistry and Biochemistry, priority 2001, published 2005):
≈ marks a conversion by molar mass, not a printed value. Read-outs that look alike come from different tables or passages of the source.

Assays:
HIV-1(IIIB) [1] = experiment: HIV-1(IIIB)-induced cytopathicity in CEM cell cultures; assay type: cell-based
Text: (§1) Viruses. The origins of MSV, HIV type 1 (HIV-1) (strain IIIB and Ba-L), HIV-2 (strain ROD) and FIV (strain Petaluma) have been described previously (Balzarini et al., AIDS 5: 21-28, 1991; De Clercq et al., Proc. Soc. Exp. Biol. Med. 137:590-594, 1971; Egberink et al., Proc. Natl. Acad. Sci. 87:3087-3091, 1990; Hartmann et al., Antiviral Chem. Chemother. 5:13-19, 1994; Popovic et al., Science 224:497-500, 1984). HIV-1(IIIB) and HIV-2(ROD) stocks were obtained from supernatants of virus-infected MT-4 cell cultures. HIV-1BaL was expanded in human primary M/M, whose supernatants were collected, filtered and stored at −80° C. before use. Characteristics of viral stocks used for this study were 2.1×10^8 HIV-RNA genomes/ml (corresponding to 35 ng of p24 antigen) and 5,000 tissue culture infectious doses 50% per ml (TCID50/ml) as assessed by virus titration in other primary M/M cultures. The isolation and characterization of the clinical HIV-1 isolates L1S, L6S and L6S/PMEA has been reported (Thormar et al., Proc. Natl. Acad. Sci. USA 93:3283-3287, 1995; Van Laethem et al., AIDS 15:553-561, 2001). […] HIV-1/L6S/PMEA is the clinical isolate HIV-1/L6S that has been isolated after culturing the virus for 11 passages in the presence of increasing concentrations of PMEA (adefovir).
(§2) In vitro antiviral assays. The activity against HIV-1- and HIV-2-induced cytopathicity was examined in MT-4 cell cultures at day 5 post infection and based on the determination of cell viability by trypan blue dye staining or in CEM cell cultures at day 4 to 5 post infection and based on the microscopical examination of virus-induced giant cell formation. HIV-1 and HIV-2 were added at 100 CCID50 to the cell cultures.

CEM cells = experiment: Inhibition of CEM cell growth (cytostatic activity); assay type: cell-based
Protocol: (§3) Cytostatic and antimetabolic effect of acyclic nucleoside phosphonates in vitro. The assays to examine the inhibition of CEM cell growth by the test compounds have been described previously (Balzarini et al., AIDS 5:21-28, 1991). The 50% cytostatic concentration (CC50) was defined as the concentration of compound that reduced the number of living cells by 50% . To measure MT-4 cell toxicity of the test compounds, 5×10^4 MT-4 cells were incubated in the wells of 96-well microplates in the presence or absence of different concentrations of the test compounds for 5 days at 37° C. The CC50 was then calculated from the number of living cells counted under a microscope by the trypan blue exclusion method.

MSV [2] = experiment: MSV-induced transformation of murine embryo fibroblast C3H/3T3 cell cultures; assay type: cell-based; conditions: Mus musculus
Protocol: The inhibitory effect of the test compounds on MSV-induced transformation of murine embryo fibroblast C3H/3T3 cell cultures was examined microscopically at day 6 post infection. MSV was added at 75 focus-forming units to the cell cultures. The detailed procedures for the antiretroviral evaluations has been described in detail before (Balzarini et al., AIDS 5:21-28, 1991; Balzarini et al., Antimicrob. Agents Chemother. 37:332-338, 1993; De Clercq et al., Proc. Soc. Exp. Biol. Med. 137:590-594, 1971).

[3] = Inhibition of CEM cell growth (cytostatic activity); assay type: cell-based; conditions: human, CEM cells
Protocol: as §3

[4] = MT-4 cell toxicity (trypan blue exclusion); assay type: cell-based; conditions: human, MT-4 cells; reduction of cell viability; Table 2
Protocol: as §3

HIV-1(IIIB) [5] = experiment: HIV-1(IIIB)-induced cytopathicity in MT-4 cell cultures; assay type: cell-based; conditions: Human immunodeficiency virus 1, IIIB, MT4; Table 2
Text: as §1, §2

[6] = Alteration of C3H cell morphology (minimal inhibitory concentration); assay type: cell-based, murine; conditions: mouse, C3H/3T3 embryo fibroblast cells; microscopically visible alteration of cell morphology; > means no visible toxicity at the indicated concentration; read-out: CC50 C3H (minimal inhibitory concentration)
HIV-2(ROD) [7] = experiment: HIV-2(ROD)-induced cytopathicity in CEM cell cultures; assay type: cell-based; conditions: Human immunodeficiency virus 2, CCRF-CEM, read-out: EC50 HIV-2 (ROD) (CEM)
Text: as §1, §2

HIV-2(ROD) [8] = experiment: HIV-2(ROD)-induced cytopathicity in MT-4 cell cultures; assay type: cell-based; conditions: Human immunodeficiency virus 2, MT4, read-out: EC50 HIV-2 (ROD) (MT-4)
Text: as §1, §2

CMV Davis = experiment: Antiviral activity, CMV Davis, Table 1a; assay type: cell-based; conditions: for EC50: Human betaherpesvirus 5
VZV TK − YS/R = experiment: Antiviral activity, VZV TK- YS/R, Table 1a; assay type: cell-based; conditions: for EC50: Human alphaherpesvirus 3, read-out: Antiviral Activity EC50 VZV TK − YS/R
MSV [9] = experiment: Antiviral activity, MSV, Table 1a; assay type: cell-based
HSV-1 (KOS) = experiment: Antiviral activity, HSV-1 (KOS), Table 1a; assay type: cell-based; conditions: for EC50: Human alphaherpesvirus 1
HIV-2 = experiment: Antiviral activity, HIV-2, Table 1a; assay type: cell-based; conditions: for EC50: Human immunodeficiency virus 2
CMV AD-169 = experiment: Antiviral activity, CMV AD-169, Table 1a; assay type: cell-based; conditions: for EC50: Human betaherpesvirus 5, AD169
VZV TK + OKA = experiment: Antiviral activity, VZV TK+ OKA, Table 1a; assay type: cell-based; conditions: for EC50: Human alphaherpesvirus 3, read-out: Antiviral Activity EC50 VZV TK + OKA
VZV TK + YS = experiment: Antiviral activity, VZV TK+ YS, Table 1a; assay type: cell-based; conditions: for EC50: Human alphaherpesvirus 3
HSV-2 (G) = experiment: Antiviral activity, HSV-2 (G), Table 1a; assay type: cell-based; conditions: for EC50: Human alphaherpesvirus 2
HIV-1 [10] = tested on: HIV-1
VZV TK − 07/1 = experiment: Antiviral activity, VZV TK- 07/1, Table 1a; assay type: cell-based; conditions: for EC50: Human alphaherpesvirus 3, read-out: Antiviral Activity EC50 VZV TK − 07/1
HSV-1 TK- VMW 1837 = experiment: Antiviral activity, HSV-1 TK- VMW 1837, Table 1a; assay type: cell-based; conditions: for EC50: Human alphaherpesvirus 1, read-out: Antiviral Activity EC50 HSV-1 TK- VMW 1837
HIV-1 [11] = experiment: microbe, parasite or virus in culture; conditions: Human immunodeficiency virus 1, read-out: Antiviral Activity EC50 HIV-1

SMILES | EC50 (CMV Davis) [µg/mL] | EC50 (VZV TK − YS/R) [µg/mL] | EC50 (MSV [9]) [µg/mL] | EC50 (HSV-1 (KOS)) [µg/mL] | EC50 (HIV-2) [µg/mL] | EC50 (CMV AD-169) [µg/mL] | EC50 (VZV TK + OKA) [µg/mL] | EC50 (HIV-1 [11]) [µg/mL] | EC50 (VZV TK + YS) [µg/mL] | EC50 (HSV-2 (G)) [µg/mL] | EC50 (VZV TK − 07/1) [µg/mL] | EC50 (HSV-1 TK- VMW 1837) [µg/mL] | also measured
Nc1nc(N)c(Br)c(OCCOCP(=O)(O)O)n1 [5-bromo-derivative of 1, 2,4-Diamino-5-bromo-6-[2-(phosphonomethoxy)ethoxy]pyrimidine] |  |  |  |  |  |  |  |  |  |  |  |  | melting point: 218 °C; Concentration at which active against HIV-1 in CEM cell cultures (HIV-1(IIIB) [1]): 2.5 µg/mL; Cytotoxicity at 100 μg/mL (CEM cells; 100 μg/mL): not toxic
Nc1nc(O)cc(OCCOCP(=O)(O)O)n1 [Compound 4, 2-amino-4-hydroxy-6-[2-(phosphonomethoxy)ethoxy]pyrimidine] |  |  |  |  |  |  |  |  |  |  |  |  | EC50 (MSV [2]; C3H, read-out: EC50 against MSV-induced C3H cell transformation): 0.05 to 0.15 µg/mL (≈ 0.189 to 0.566 µM); EC50 (MSV [2]; MSV-induced C3H cell transformation, Table 2, read-out: EC50 MSV (C3H)): 0.08 ± 0.03 µg/mL (≈ 0.302 µM); EC50 (HIV-1(IIIB) [1]; Human immunodeficiency virus 1, CCRF-CEM, HIV-1 (IIIB) in CEM, no addition, Table 3, read-out: EC50 as such): 1.4 ± 0.71 µg/mL (≈ 5.28 µM); EC50 (HIV-1(IIIB) [1]; Human immunodeficiency virus 1, CCRF-CEM, HIV-1 (IIIB) in CEM, Ade 100 μM, read-out: EC50 upon addition of Ade (100 μM)): 1.7 ± 1.2 µg/mL (≈ 6.41 µM); EC50 (HIV-1(IIIB) [1]; Human immunodeficiency virus 1, CCRF-CEM, HIV-1 (IIIB) in CEM, Ado 400 μM, read-out: EC50 upon addition of Ado (400 μM)): 1.4 ± 0.93 µg/mL (≈ 5.28 µM); EC50 (HIV-1(IIIB) [1]; Human immunodeficiency virus 1, CCRF-CEM, HIV-1 (IIIB) in CEM, Guo 10 μM, read-out: EC50 upon addition of Guo (10 μM)): 1.9 ± 0.92 µg/mL (≈ 7.17 µM); EC50 (HIV-1(IIIB) [1]; Human immunodeficiency virus 1, CCRF-CEM, HIV-1 (IIIB) in CEM, dCyd 1 mM, read-out: EC50 upon addition of dCyd (1 mM)): 2.4 ± 1.9 µg/mL (≈ 9.05 µM); EC50 (HIV-1(IIIB) [1]; Human immunodeficiency virus 1, CCRF-CEM, HIV-1 (IIIB) in CEM, dThd 10 μM, read-out: EC50 upon addition of dThd (10 μM)): 1 ± 0.3 µg/mL (≈ 3.77 µM); EC50 (HIV-1(IIIB) [1]; Human immunodeficiency virus 1, CCRF-CEM, HIV-1(IIIB)-induced cytopathicity in CEM cell cultures, Table 1, read-out: EC50 HIV-1 (CEM)): 2.2 µg/mL (≈ 8.3 µM); EC50 (HIV-1(IIIB) [1]; Human immunodeficiency virus 1, IIIB, CCRF-CEM, giant cell formation, mean ±SD of 2 to 4 experiments, Table 2, read-out: EC50 HIV-1 (IIIB) (CEM)): 1.4 ± 0.7 µg/mL (≈ 5.28 µM); CC50 ([3]; 50% cytostatic concentration, CEM cell proliferation, Table 1, read-out: CC50 (CEM)): 2.5 µg/mL (≈ 9.43 µM); CC50 ([3]; inhibition of cell proliferation, Table 2, read-out: CC50 CEM): 2.5 ± 0.2 µg/mL (≈ 9.43 µM); CC50 ([3]; read-out: CC50 for CEM cells): 2.5 µg/mL (≈ 9.43 µM); CC50 at 5 days [4]: 10 ± 2.2 µg/mL (≈ 37.7 µM); EC50 (HIV-1(IIIB) [5]): 1.9 ± 0.4 µg/mL (≈ 7.17 µM); Minimal concentration causing visible cell morphology alteration [6]: ≥ 16 µg/mL; EC50 (HIV-2(ROD) [7]): 1.4 ± 1.2 µg/mL (≈ 5.28 µM); EC50 (HIV-2(ROD) [8]): 2.1 µg/mL (≈ 7.92 µM)
C[C@@H](COc1cc(N)nc(N)n1)OCP(=O)(O)O [Compound 10, 2,4-diamino-6-(S)-[2-(phosphonome-thoxy)propoxy]pyrimidine] |  |  |  |  |  |  |  |  |  |  |  |  | Antiviral Activity EC50 CMV Davis (CMV Davis): >50 µg/mL; Antiviral Activity EC50 VZV TK − YS/R (VZV TK − YS/R): >50 µg/mL; Antiviral Activity EC50 MSV (MSV [9]): 6.1 µg/mL; Antiviral Activity EC50 HSV-1 (KOS) (HSV-1 (KOS)): >80 µg/mL; EC50 HIV-1 (CEM) (HIV-1(IIIB) [1]; HIV-1(IIIB)-induced cytopathicity in CEM cell cultures, Table 1): 51 µg/mL (≈ 183 µM); Antiviral Activity EC50 HIV-2 (HIV-2): 33 µg/mL; Antiviral Activity EC50 CMV AD-169 (CMV AD-169): >50 µg/mL; CC50 (CEM) (CEM cells; 50% cytostatic concentration, CEM cell proliferation, Table 1): >100 µg/mL; Antiviral Activity EC50 VZV TK + OKA (VZV TK + OKA): >50 µg/mL; Antiviral Activity EC50 VZV TK + YS (VZV TK + YS): >50 µg/mL; Antiviral Activity EC50 HSV-2 (G) (HSV-2 (G)): >80 µg/mL; Antiviral Activity EC50 HIV-1 (HIV-1 [10]): 51 µg/mL; Antiviral Activity EC50 VZV TK − 07/1 (VZV TK − 07/1): >50 µg/mL; Antiviral Activity EC50 HSV-1 TK- VMW 1837 (HSV-1 TK- VMW 1837): >80 µg/mL
Nc1cc(OCCOCP(=O)(O)O)ncn1 [Compound H-3418] | > 50 | > 50 | 12.6 ± 7.6 (≈ 50.6 µM) | > 16 | > 100 | > 50 | > 50 | > 100 | > 50 | > 16 | > 50 | > 16 | 
CN(C)c1cc(OCCOCP(=O)(O)O)nc(N)n1 [Compound H-3427] | > 50 | > 50 | 139 ± 11 (≈ 476 µM) | > 400 | > 100 | > 50 | > 50 | > 100 | > 50 | > 400 | > 50 | > 400 | 
Nc1nc(OCCOCP(=O)(O)O)cc(=O)n1CCOCP(=O)(O)O [Compound H-3445] | > 50 | > 50 | 107 ± 10 (≈ 265 µM) | > 400 | > 100 | > 50 | > 50 | > 100 | > 50 | > 400 | > 50 | > 400 | 
Cc1cc(OCCOCP(=O)(O)O)nc(N)n1 [Compound H-3453] | > 50 | > 50 | 89.4 ± 37.6 (≈ 340 µM) | > 400 | > 100 | > 50 | > 50 | > 100 | > 50 | > 400 | > 50 | > 400 | 
Nc1nc(OCCOCP(=O)(O)O)cc(OCCOCP(=O)(O)O)n1 [Example 10, 2-Amino-4,6-bis[2-(phosphonomethoxy)ethoxy]pyrimidine] |  |  |  |  |  |  |  |  |  |  |  |  | melting point: 108 °C
